We go through five compounds from ChEMBL document CHEMBL1143959, “Synthesis and structure-affinity relationships of novel spirocyclic sigma receptor ligands with furopyrazole structure” (Bioorg Med Chem, 2008).

The species entered for one test is Rattus norvegicus. Put plainly: Displacement of [3H]ditolylguanidine from sigma 2 […] receptor in rat liver at 1 uM. In general terms: Displacement assays read how much labelled ligand stays bound in the presence of the test substance.
Test [1] can be described thus: Displacement of [3H]ditolylguanidine from sigma 2 […] receptor in rat liver.
Test [2] is described as follows: Inhibition of adrenergic alpha 1 receptor.
Test [3] can be described thus: Displacement of [3H]MK-801 from NMDA receptor at 1 uM.
Test [4] addresses T1, 5-hydroxytryptamine receptor 1A (Homo sapiens, UniProt P08908).
T1 sequence (P08908 whole entry): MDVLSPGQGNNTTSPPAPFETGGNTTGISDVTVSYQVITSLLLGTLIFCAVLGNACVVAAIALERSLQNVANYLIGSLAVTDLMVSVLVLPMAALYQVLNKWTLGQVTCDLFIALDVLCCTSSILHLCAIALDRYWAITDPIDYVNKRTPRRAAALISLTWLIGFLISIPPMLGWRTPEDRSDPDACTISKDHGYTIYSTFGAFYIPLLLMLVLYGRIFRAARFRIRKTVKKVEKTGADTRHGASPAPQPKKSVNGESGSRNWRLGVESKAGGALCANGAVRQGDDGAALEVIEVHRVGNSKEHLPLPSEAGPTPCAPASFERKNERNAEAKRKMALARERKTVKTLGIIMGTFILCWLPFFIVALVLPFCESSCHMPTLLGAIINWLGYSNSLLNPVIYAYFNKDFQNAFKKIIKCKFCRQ
Put plainly: Inhibition of 5HT1A receptor.

Test [5] has as its target Voltage-gated inwardly rectifying potassium channel KCNH2 (Homo sapiens, UniProt Q12809). Put plainly: Inhibition of human ERG channel.
Test [6] concerns the target Sodium-dependent serotonin transporter (Homo sapiens, UniProt P31645). Put plainly: Inhibition of 5HTT receptor.
The nature of test [7]: Inhibition of adrenergic alpha 2 receptor.
Test [8] has as its target Sigma non-opioid intracellular receptor 1 (Cavia porcellus, UniProt Q60492). Put plainly: Displacement of [3H](+)-pentazocine from sigma 1 opioid receptor in guinea pig brain membrane. In kind it is cell membranes.

Each structure is given as a SMILES string.

Sequence of Sodium-dependent serotonin transporter (P31645 whole entry): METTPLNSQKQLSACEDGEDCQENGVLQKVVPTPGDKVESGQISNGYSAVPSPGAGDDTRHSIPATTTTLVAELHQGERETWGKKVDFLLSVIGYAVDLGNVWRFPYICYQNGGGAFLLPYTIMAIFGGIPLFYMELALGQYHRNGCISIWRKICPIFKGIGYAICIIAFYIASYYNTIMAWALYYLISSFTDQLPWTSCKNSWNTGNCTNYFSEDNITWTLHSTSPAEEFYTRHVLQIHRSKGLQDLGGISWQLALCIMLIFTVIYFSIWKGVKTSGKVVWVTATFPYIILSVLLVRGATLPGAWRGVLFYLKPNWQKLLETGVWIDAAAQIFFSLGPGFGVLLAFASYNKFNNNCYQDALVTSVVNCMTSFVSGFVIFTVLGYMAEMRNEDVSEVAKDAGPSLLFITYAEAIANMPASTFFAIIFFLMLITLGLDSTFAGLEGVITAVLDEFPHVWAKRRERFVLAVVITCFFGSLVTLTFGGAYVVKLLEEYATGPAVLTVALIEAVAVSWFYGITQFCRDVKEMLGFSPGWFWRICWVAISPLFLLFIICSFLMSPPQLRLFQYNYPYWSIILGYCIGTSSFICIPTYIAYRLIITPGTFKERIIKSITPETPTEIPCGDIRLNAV
Sequence of Voltage-gated inwardly rectifying potassium channel KCNH2 (Q12809 whole entry): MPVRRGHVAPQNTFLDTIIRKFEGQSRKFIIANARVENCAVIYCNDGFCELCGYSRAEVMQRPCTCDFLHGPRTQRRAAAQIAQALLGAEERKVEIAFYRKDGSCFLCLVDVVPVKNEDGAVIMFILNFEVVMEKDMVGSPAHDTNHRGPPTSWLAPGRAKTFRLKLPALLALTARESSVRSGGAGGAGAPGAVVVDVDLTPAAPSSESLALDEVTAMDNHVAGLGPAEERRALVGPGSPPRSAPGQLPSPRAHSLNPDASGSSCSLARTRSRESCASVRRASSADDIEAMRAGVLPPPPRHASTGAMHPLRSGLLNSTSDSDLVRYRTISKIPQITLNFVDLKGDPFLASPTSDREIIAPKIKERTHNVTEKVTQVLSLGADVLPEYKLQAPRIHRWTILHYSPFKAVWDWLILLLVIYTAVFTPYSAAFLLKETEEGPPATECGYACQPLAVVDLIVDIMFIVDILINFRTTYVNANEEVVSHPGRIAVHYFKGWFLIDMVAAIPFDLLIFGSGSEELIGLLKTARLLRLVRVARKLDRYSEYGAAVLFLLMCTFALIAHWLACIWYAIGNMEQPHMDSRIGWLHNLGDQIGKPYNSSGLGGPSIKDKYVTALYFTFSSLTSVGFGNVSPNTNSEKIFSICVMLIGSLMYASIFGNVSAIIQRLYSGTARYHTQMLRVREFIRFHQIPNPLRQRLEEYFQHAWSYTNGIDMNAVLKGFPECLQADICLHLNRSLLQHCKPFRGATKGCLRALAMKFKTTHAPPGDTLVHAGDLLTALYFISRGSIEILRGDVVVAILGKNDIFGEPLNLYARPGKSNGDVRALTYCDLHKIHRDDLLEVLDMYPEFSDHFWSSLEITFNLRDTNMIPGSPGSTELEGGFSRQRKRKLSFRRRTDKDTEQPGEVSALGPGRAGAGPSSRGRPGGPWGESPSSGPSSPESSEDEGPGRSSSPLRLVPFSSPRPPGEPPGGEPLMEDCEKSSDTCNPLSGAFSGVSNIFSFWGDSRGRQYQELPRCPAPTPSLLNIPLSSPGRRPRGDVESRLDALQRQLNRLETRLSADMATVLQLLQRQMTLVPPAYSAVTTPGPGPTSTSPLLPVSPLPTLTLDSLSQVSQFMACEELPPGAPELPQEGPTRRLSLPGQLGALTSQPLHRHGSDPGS
Sequence of Sigma non-opioid intracellular receptor 1 (Q60492 whole entry): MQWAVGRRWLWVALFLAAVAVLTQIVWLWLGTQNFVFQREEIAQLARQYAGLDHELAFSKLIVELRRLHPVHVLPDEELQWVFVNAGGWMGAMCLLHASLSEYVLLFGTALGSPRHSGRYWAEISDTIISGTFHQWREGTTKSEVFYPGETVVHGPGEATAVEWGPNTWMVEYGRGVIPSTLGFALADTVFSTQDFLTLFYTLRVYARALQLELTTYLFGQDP

For the compound `COC1OC2(CCNCC2)c2cnn(-c3ccccc3)c21` (stereo not drawn), in the test filed under Rattus norvegicus, the inhibition (as a rule, the drop in the measured response relative to a control, in per cent) came to 12%.
In the case of `c1ccc(-n2ncc3c2CCC3CCN2CCCCC2)cc1` (stereo not drawn), in test [1], the affinity, expressed as Ki, was 36.2 nM.
In the case of `CCCCN1CCC2(CC1)OC(OC)c1c2cnn1-c1ccccc1` (stereo not drawn), the IC50 (in general, the concentration that gives 50% inhibition) in test [2] is 1220 nM; in [4], > 10000 nM; in [5], 0.65 nM; in [6] it was > 10000 nM; in [7] it was > 1000 nM. For the same compound, the inhibition constant (Ki) (usually the equilibrium dissociation constant of an inhibitor or competing ligand from its target) in test [1] came out at 1050 nM. Moreover, the inhibition in test [3] amounted to 30%.
With `Cc1ccccc1NC(=N)Nc1ccccc1C` [DITOLYLGUANIDINE], the Ki in test [1] amounted to 20.2 nM.
Regarding `COC1OC2(CCN(Cc3ccccc3)CC2)c2cnn(-c3ccccc3)c21` (stereo not drawn), the results for the Ki in [8] and in test [1] were 0.5 nM and 1750 nM, respectively. In addition, the IC50 in test [2] was > 1000 nM; in test [4] it was > 10000 nM; in test [5], 0.41 nM; in test [6], > 10000 nM; in test [7], > 1000 nM. Further, in [3], the inhibition is 17%.
